Read-outs that look alike come from different tables or passages of the source.
Columns and labels:
MCF7 cells [1] = test: Calcein AM cytotoxicity assay, MCF7; format: cell-based; conditions: Homo sapiens
Description: (§1) Five serial 1:2 dilutions were made with anhydrous DMSO at 100× the final concentration used in the assay.

SK-OV-3 cells [2] = test: Cell Titer-Glo cytotoxicity assay, SK-OV-3; format: cell-based; conditions: Homo sapiens
Description: as §1

HCT-116 cells [3] = test: Calcein AM cytotoxicity assay, HCT-116; format: cell-based; conditions: Homo sapiens
Description: as §1

SK-OV-3 cells [4] = test: Calcein AM cytotoxicity assay, SK-OV-3; format: cell-based; conditions: Homo sapiens
Description: as §1

NCI-H460 cells [5] = test: Cell Titer-Glo cytotoxicity assay, NCI-H460; format: cell-based, human; conditions: Homo sapiens
Description: as §1

Hep3B cells [6] = test: Cell Titer-Glo cytotoxicity assay, Hep3B; format: cell-based; conditions: Homo sapiens, 72 h
Description: as §1

NCI/ADR RES cells [7] = test: Calcein AM cytotoxicity assay, NCI/ADR-RES; format: cell-based; conditions: Homo sapiens, 72 h
Description: as §1

NCI-H460 cells [8] = test: Calcein AM cytotoxicity assay, NCI-H460; format: cell-based; conditions: Homo sapiens
Description: as §1

MCF7 cells [9] = test: Cell Titer-Glo cytotoxicity assay, MCF7; format: cell-based, human; conditions: Homo sapiens
Description: as §1

HCT-116 cells [10] = test: Cell Titer-Glo cytotoxicity assay, HCT-116; format: cell-based; conditions: Homo sapiens
Description: as §1

Hep3B cells [11] = test: Calcein AM cytotoxicity assay, Hep3B; format: cell-based; conditions: Homo sapiens, 72 h
Description: as §1

Du145 cells [12] = test: Cell Titer-Glo cytotoxicity assay, Du145; format: cell-based; conditions: Homo sapiens
Description: as §1

[13] = system: NmuMG mouse mammary normal epithelial cells; test: Calcein AM cytotoxicity assay, NmuMG; format: cell-based; conditions: Epithelial cell, 72 h
Description: as §1

HT-29 cells = test: MTT cytotoxicity assay, HT-29; format: cell-based; conditions: Homo sapiens
Description: The IC50 value for each library member represents at least twelve replicates of dose-response experiments conducted over five concentrations. […] In this assay, live cells were distinguished by the intracellular enzymatic activity that converts the cell-permeable molecule MTT to strongly colored formazan crystals, which are retained within live cells and absorb light at 570 nm.
MTT Cytotoxicity Assay. HT-29 cell lines were maintained in RPMI medium 1640 supplemented with 10% (wt/vol) FBS and 1% penicillin-streptomycin (PS) (100 units/mL and 100 μg/mL). Cells were harvested by trypsinization using 0.25% trypsin and 0.1% EDTA and plated at a density of 2,000-5,000 cells per well of each 96-well microtiter plate. Cells were grown for 24 h at 37° C., with 5% CO2/95% air in a humidified incubator to allow cell attachment to occur before compound addition. Library members were stored at −20° C. under desiccating conditions before the assay. Library member stocks (1000×) were prepared in falcon tubes (BD Biosciences). Five dilutions were made with DMSO at 1000× the final concentration used in the assay. The 1000× stocks (3 μL) were diluted with complete culture medium (3 mL). Each plate contained twelve replicates of cells treated with 0.1% DMSO in complete cell culture medium that served as an individual negative control. Library member stocks (1×, 200 μL) were added to aspirated cells and replicated twelve times on each plate. Cells were incubated with the library members for 24 h before optical density reading. Test plates were removed from the incubator and washed once in sterile PBS to remove serum containing library members. Freshly-made 10×MTT solution in sterile PBS (5 mg/mL) was diluted 1:10 in serum-free culture medium and was sterilized using a 0.2 μm filter. Diluted MTT solution (1×, 50 μL) was added to each well and the plates were incubated in the dark for 2 h. Test plates were centrifuged at 1800×g for 5 min at 4° C. using a Beckman GPR centrifuge. MTT solution was removed by aspiration and 100 μL DMSO was added to each well to lyse cells and solubilize formazan crystals. Test plates were incubated in the dark at room temperature for 10 min. Plates were read for optical density at 570 nm.
IC50 Calculations. For each library member, at least three dose-response experiments were conducted on separate plates. […] To calculate IC50, percent inhibitions were plotted as a function of log[concentration] and then fit to a four-parameter logistic model that allowed for a variable Hill slope by using XLFIT 4.1 (ID Business Solutions, Emeryville, Calif.).

SF-268 cells [14] = test: Calcein AM cytotoxicity assay, SF-268; format: cell-based; conditions: Homo sapiens
Description: as §1

SF-268 cells [15] = test: Cell Titer-Glo cytotoxicity assay, SF-268; format: cell-based; conditions: Homo sapiens
Description: as §1

Du145 cells [16] = test: Calcein AM cytotoxicity assay, Du145; format: cell-based; conditions: Homo sapiens
Description: as §1

[17] = system: NmuMG mouse mammary normal epithelial cells; test: Cell Titer-Glo cytotoxicity assay, NmuMG; format: cell-based; conditions: Mus musculus, Epithelial cell, 72 h
Description: as §1

human cancer cell lines = test: Cytotoxicity across the panel of human cancer cell lines (average, high-throughput assays); format: cell-based; conditions: for further fold increase in potency from multiple phenyl rings: average IC50 compared with single-ring 23 and 38; for IC50: read-out: Cancerous Average IC50 / Average IC50 in Cancer Cell Lines
Description: as §1

NCI/ADR RES cells [18] = test: Cell Titer-Glo cytotoxicity assay, NCI/ADR-RES; format: cell-based, human; conditions: Homo sapiens, NCI/ADR-RES, 72 h
Description: as §1

[19] = MCF7, Calcein AM, 72 h, read-out: IC50
[20] = SK-OV-3, Cell Titer-Glo, 72 h, read-out: IC50
[21] = HCT-116, Calcein AM, 72 h, read-out: IC50
[22] = SK-OV-3, Calcein AM, 72 h, read-out: IC50
[23] = NCI-H460, Cell Titer-Glo, 72 h, read-out: IC50
[24] = NCI-H460, Calcein AM, 72 h, read-out: IC50
[25] = MCF7, Cell Titer-Glo, 72 h, read-out: IC50
[26] = HCT-116, Cell Titer-Glo, 72 h, read-out: IC50
[27] = DU-145, Du145, Cell Titer-Glo, 72 h, read-out: IC50
[28] = NmuMG, Calcein AM, read-out: IC50
[29] = HT-29, MTT, 24 h, read-out: IC50
[30] = SF-268, Calcein AM, 72 h, read-out: IC50
[31] = SF-268, Cell Titer-Glo, 72 h, read-out: IC50
[32] = DU-145, Du145, Calcein AM, 72 h, read-out: IC50
[33] = NmuMG, Cell Titer-Glo, read-out: IC50
[34] = average across eight human cancer cell lines, MTT (HT-29) values excluded

S=C=NCc1ccc(Oc2ccccc2)cc1 [Compound 36, 1-(isothiocyanatomethyl)-4-phenoxybenzene]
IC50 (MCF7 cells [1]; [19]): 6.34 µM
IC50 (SK-OV-3 cells [2]; [20]): 3.99 µM
IC50 (HCT-116 cells [3]; [21]): 4.19 µM
IC50 (SK-OV-3 cells [4]; [22]): 3.93 µM
IC50 (NCI-H460 cells [5]; [23]): 9.12 µM
IC50 (Hep3B cells [6]; Cell Titer-Glo, read-out: IC50): 3.95 µM
IC50 (NCI/ADR RES cells [7]; Calcein AM, read-out: IC50): 3.93 µM
IC50 (NCI-H460 cells [8]; [24]): 4.47 µM
IC50 (MCF7 cells [9]; [25]): 6.16 µM
IC50 (HCT-116 cells [10]; [26]): 3.55 µM
IC50 (Hep3B cells [11]; Calcein AM, read-out: IC50): 7.17 µM
IC50 (Du145 cells [12]; [27]): 8.24 µM
IC50 [13, 28]: < 12.5 µM
IC50 (HT-29 cells; [29]): 37.6 µM
IC50 (SF-268 cells [14]; [30]): 6.17 µM
IC50 (SF-268 cells [15]; [31]): 5.06 µM
IC50 (Du145 cells [16]; [32]): 12.2 µM
IC50 [17, 33]: 187 µM
further fold increase in potency from multiple phenyl rings (human cancer cell lines): ~2 fold
IC50 (human cancer cell lines; [34]): 4.84 µM
IC50 (NCI/ADR RES cells [18]; Cell Titer-Glo, read-out: IC50): 3.3 µM

C[S+]([O-])CCCCN=C=S (stereo not drawn) [Compound 2, 1-isothiocyanato-4-(methylsulfinyl) butane, reference compound]
IC50 (MCF7 cells [1]; MCF7, 72 h): 3.14 µM
IC50 (SK-OV-3 cells [2]; SK-OV-3, 72 h): 4.67 µM
IC50 (HCT-116 cells [3]; HCT-116, 72 h): 2.94 µM
IC50 (SK-OV-3 cells [4]; SK-OV-3, 72 h): 7.6 µM
IC50 (NCI-H460 cells [5]; NCI-H460, 72 h): 5.94 µM
IC50 (Hep3B cells [6]): 4.48 µM
IC50 (NCI/ADR RES cells [7]): 8.89 µM
IC50 (NCI-H460 cells [8]; NCI-H460, 72 h): 8.74 µM
IC50 (MCF7 cells [9]; MCF7, 72 h): < 3.13 µM
IC50 (HCT-116 cells [10]; HCT-116, 72 h): 3.58 µM
IC50 (Hep3B cells [11]): 4.13 µM
IC50 (Du145 cells [12]; DU-145, 72 h): 6.1 µM
IC50 [13]: 6.86 µM
IC50 (HT-29 cells; HT-29, 24 h): 45.2 µM
IC50 (SF-268 cells [14]; SF-268, 72 h): 11 µM
IC50 (SF-268 cells [15]; SF-268, 72 h): 6.16 µM
IC50 (Du145 cells [16]; DU-145, 72 h): 5.25 µM
IC50 [17]: 6.59 µM
selectivity for cancer cells over NmuMG cells (human cancer cell lines): 1.3 fold
IC50 (human cancer cell lines; Homo sapiens): 5.26 µM
IC50 (NCI/ADR RES cells [18]): 8.98 µM

S=C=NCC(c1ccccc1)c1ccccc1 [Compound 40, 2-isothiocyanato-1,1-diphenylethane]
IC50 (MCF7 cells [1]; [19]): 3.62 µM
IC50 (SK-OV-3 cells [2]; [20]): 4.52 µM
IC50 (HCT-116 cells [3]; [21]): 3.26 µM
IC50 (SK-OV-3 cells [4]; [22]): 5.26 µM
IC50 (NCI-H460 cells [5]; [23]): 5.64 µM
IC50 (Hep3B cells [6]; Cell Titer-Glo, read-out: IC50): 4.3 µM
IC50 (NCI/ADR RES cells [7]; Calcein AM, read-out: IC50): 3.95 µM
IC50 (NCI-H460 cells [8]; [24]): 9.91 µM
IC50 (MCF7 cells [9]; [25]): 3.68 µM
IC50 (HCT-116 cells [10]; [26]): 1.22 µM
IC50 (Hep3B cells [11]; Calcein AM, read-out: IC50): 3.58 µM
IC50 (Du145 cells [12]; [27]): 3.65 µM
IC50 [13, 28]: 5.81 µM
IC50 (HT-29 cells; [29]): 22.9 µM
IC50 (SF-268 cells [14]; [30]): 3.49 µM
IC50 (SF-268 cells [15]; [31]): 3.33 µM
IC50 (Du145 cells [16]; [32]): 3.51 µM
IC50 [17, 33]: 3.62 µM
further fold increase in potency from multiple phenyl rings (human cancer cell lines): ~2 fold
IC50 (human cancer cell lines; [34]): 4.11 µM
IC50 (NCI/ADR RES cells [18]; Cell Titer-Glo, read-out: IC50): 4.47 µM

From patent publication US20080312164A1 (priority 2006, published 2008)
